Test results: PubChem BioAssay AID1117324 (Cheminformatics & Chemogenomics Research Group (CCRG), …, 2015)
Activity calls are given as the source filed them. How the calls were made is not given here.

tested on: VEGF-stimulated ADSC/ECFC co-culture, nuclear area imaging; assay: nuclear area loss in endothelial-stromal co-culture, dose response, cell-based, VEGF stimulation, IC50 (AID 1117324)

Row | SMILES | IC50
1 | O=C(NOCC1CC1)c1ccc(F)c(F)c1Nc1ccc(I)cc1Cl | > 10 µM (inactive)
2 | CCc1oc2ccccc2c1C(=O)c1cc(I)c(O)c(I)c1 | > 10 µM (inactive)
3 | O=C(CCl)c1ccc(Cl)cc1Cl | 6.17 µM (inactive)
4 | Clc1ccc(CO/N=C(\Cn2ccnc2)c2ccc(Cl)cc2Cl)c(Cl)c1 | 8.85 µM (inactive)
5 | Cc1ccc2nc(N)[nH]c(=O)c2c1Sc1ccncc1 | > 10 µM (inactive)
6 | Cc1c(N)cccc1C(F)(F)F | > 10 µM (inactive)
7 | COC1=C(OC)C(=O)C(CCCCCCCCCCO)=C(C)C1=O | > 10 µM (inactive)
8 | O=[N+]([O-])c1ccc(Oc2ccc(N=C=S)cc2)cc1 | > 10 µM (inactive)
9 | CC(=O)Oc1ccc(C2(c3ccc(OC(C)=O)cc3)C(=O)Nc3ccccc32)cc1 | > 10 µM (inactive)
10 | N[C@@H](Cc1ccc(N(CCCl)CCCl)cc1)C(=O)O | > 10 µM (inactive)
11 | CC(C)=CCCC(C)=CCCC(C)=CCCC=C(C)CCC=C(C)CCC=C(C)C | > 10 µM (inactive)
12 | O=c1[nH]c(=O)n([C@H]2C[C@H](O)[C@@H](CO)O2)cc1I | > 10 µM (inactive)
13 | CSc1ccc(/C=C2/C(C)=C(CC(=O)O)c3cc(F)ccc32)cc1 | > 10 µM (inactive)
14 | O=S(c1cc(Cl)cc(Cl)c1O)c1cc(Cl)cc(Cl)c1O | > 10 µM (inactive)
15 | CC1CCC(C(C)C)C(OC(=O)c2ccccc2O)C1 (stereo not given) | > 10 µM (inactive)
16 | NC1=NCC2c3ccccc3Cc3ccccc3N12 (stereo not given) | > 10 µM (inactive)
17 | COc1cc(-c2ccc(=O)[nH]n2)ccc1OC(F)F | > 10 µM (inactive)
18 | CCCCCCCCCCC[C@@H](C[C@@H]1OC(=O)[C@H]1CCCCCC)OC(=O)[C@H](CC(C)C)NC=O | > 10 µM (inactive)
19 | CC(C)Cn1cnc2c1c(=O)n(C)c(=O)n2C | > 10 µM (inactive)
20 | CCCCCCCCCCCCCCNCCO | 9.19 µM (inactive)
21 | CN1CCCC(CC2c3ccccc3Sc3ccccc32)C1 (stereo not given) | > 10 µM (inactive)
22 | O=C1C(I)=CC(=C(c2cc(I)c(O)c(I)c2)c2ccccc2C(=O)O)C=C1I | > 10 µM (inactive)
23 | Cc1c(O)cccc1C(=O)N[C@@H](CSc1ccccc1)[C@H](O)CN1C[C@H]2CCCC[C@H]2C[C@H]1C(=O)NC(C)(C)C | > 10 µM (inactive)

Row | SMILES | IC50
24 | CCCCCCCCCCCCCCCCCCCCCC(=O)Nc1ccn([C@@H]2O[C@H](CO)[C@@H](O)[C@H]2O)c(=O)n1 | > 10 µM (inactive)
25 | CC(=O)[O][Hg][c]1ccccc1 | 0.883 µM
26 | CCCCC[C@@H](O)CC[C@H]1[C@@H]2Cc3cccc(OCC(=O)O)c3C[C@@H]2C[C@@H]1O | > 10 µM (inactive)
27 | CN(C)C(=S)SSC(=S)N(C)C | > 10 µM (inactive)
28 | N/C(=N\N=C\c1ccc(Cl)cc1)N/N=C/c1ccc(Cl)cc1 | > 10 µM (inactive)
29 | CC(C(O)c1ccccc1)N(C)C/C=C/c1ccccc1 (stereo not given) | > 10 µM (inactive)
30 | Nc1nc(=O)n([C@@H]2O[C@H](CO)[C@@H](O)[C@@H]2F)cc1I | > 10 µM (inactive)
31 | Oc1ccc(O)cc1 | > 10 µM (inactive)
32 | CCCCc1ccc2nc(NC(=O)OC)[nH]c2c1 | > 10 µM (inactive)
33 | COCc1c(C(C)C)nc(C(C)C)c(/C=C/[C@@H](O)C[C@@H](O)CC(=O)O)c1-c1ccc(F)cc1 | 0.259 µM
34 | C[C@]12CC[C@@H]3c4ccc(O)cc4CC[C@H]3[C@@H]1CC[C@@H]2OC(=O)CCC1CCCC1 | > 10 µM (inactive)
35 | C[C@H]1O[C@@H](O[C@H]2CC[C@@]3(C)[C@H](CC[C@@H]4[C@@H]3C[C@@H](O)[C@]3(C)[C@@H](C5=CC(=O)OC5)CC[C@]43O)C2)C[C@H](O)[C@@H]1O[C@H]1C[C@H](O)[C@H](O[C@H]2C[C@H](O)[C@H](O[C@@H]3O[C@H](CO)[C@@H](O)[C@H](O)[C@H]3O)[C@@H](C)O2)[C@@H](C)O1 | 0.299 µM
36 | CCN(CC)CCNc1ccc(CO)c2sc3ccccc3c(=O)c12 | > 10 µM (inactive)
37 | CCCCCCCCCCCCCCCCNc1ccc(C(=O)O)cc1 | > 10 µM (inactive)
38 | O=C(O)c1ccc2[nH]cc(CCCCN3CC=C(c4ccccc4)CC3)c2c1 | > 10 µM (inactive)
39 | CC(COc1ccccc1)NN (stereo not given) | > 10 µM (inactive)
40 | CN(C)/N=N/c1nc[nH]c1C(N)=O | > 10 µM (inactive)
41 | COc1ccc2c(c1)c1c3n2CCN(C)C3=NCC1 | > 10 µM (inactive)
42 | OC[C@@H](O)[C@H](O)[C@H](O)[C@@H](O)CO | > 10 µM (inactive)
43 | CCOc1ccc2nc3cc(N)ccc3c(N)c2c1 | > 10 µM (inactive)
44 | Cc1cc(C(C#N)c2ccc(Cl)cc2)c(Cl)cc1NC(=O)c1cc(I)cc(I)c1O (stereo not given) | 7.36 µM (inactive)
45 | CCCCCCCCCCCCCCCC[n+]1ccccc1 | 3.01 µM
